Data on eleven compounds can be found in PubChem BioAssay (NCI).

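Five compound concentrations were applied to cells in 96-well plates for 48 hours; endpoints were derived by simple linear interpolation of the resulting dose-response curve. Here, GI50 denotes the concentration required for 50% inhibition of growth. TGI is the concentration that stops growth completely.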

Test in all cases: growth of human tumour cells (NCI), 48 h
Test [1] relates to 786-0 renal.
The subject of test [2] is A498 renal.
In test [3] the test system is BT-549 breast.
Test [4] concerns COLO 205 colon.
Test [5] concerns DU-145 prostate.
The subject of test [6] is MCF7 breast.
The subject of test [7] is SF-268 CNS.
Test [8] relates to SNB-19 CNS.

As for `Cc1ccc2c(c1)C(C)Cc1c(Cl)ncnc1N2C` (stereo not given), the GI50 is 3.25 µM in test [1]; 2.08 µM in test [2]; 3 µM in test [3]; 2.11 µM in test [4]; 4.21 µM in test [5]; 2.96 µM in test [6]. Besides, the GI50 in test [7] was 2.5 µM; in test [8], 4.89 µM. Also, the TGI in test [1] amounted to 17.8 µM; in test [2], 4.78 µM; in test [3], 9.74 µM; in test [4] it was 4.62 µM; in test [5], 91.9 µM; in test [6] it was 11.7 µM. Moreover, the results for the TGI in test [7] and in test [8] were 13.8 µM and 49.7 µM, respectively.

With `COC(=O)C1CCCN1C(=O)[C@@H]1CCCN1C(=O)[C@H](Cc1c[nH]c2ccccc12)NC(=S)Nc1cc(C(F)(F)F)cc(C(F)(F)F)c1` (stereo not given in full), the GI50 in test [1] is 2.52 µM; in test [2] it was 2.15 µM; in test [3] it was 2.88 µM; in test [4] it was 1.72 µM; in test [5] it was 2.52 µM; in test [6] it was 2.19 µM. The GI50 is 3.46 µM in test [7] and 2.7 µM in test [8]. Also, the TGI amounted to 6.86 µM in test [1]; 6.65 µM in test [2]; 8.03 µM in test [3]; 3.21 µM in test [4]; 6.47 µM in test [5]; 6 µM in test [6]. Also, the TGI was determined as 13.6 µM in test [7] and 12.1 µM in test [8].

Regarding `COC(=O)C1=C(C(=O)OC)SC(=C(Cl)C(=S)Nc2ccccc2O)S1`, the GI50 in test [1] is 0.686 µM; in test [3] it was 2.34 µM; in test [4], 16.2 µM; in test [5], 15.7 µM; in test [6] it was 8.57 µM; in test [7], 10.2 µM. In addition, the GI50 in test [8] is 18 µM. Further, the TGI in test [1] was 10.1 µM; in test [3], 35.5 µM; in test [4], above 50 µM; in test [5] it was above 50 µM; in test [6] it was 25.7 µM; in test [7], 23.6 µM. This compound also displayed a TGI in test [8] above 50 µM.

Take `Nc1c([N+](=O)[O-])cc2c3c(cccc13)CC2`: the TGI in test [1], in test [2], in test [3], in test [4], in test [5] and in test [7] was above 100 µM each time. Further, in test [8], the TGI is above 100 µM.

For the compound `S=c1ssc(Oc2ccccc2)c1Cl`, the GI50 was 6.63 µM in test [1]; 12.7 µM in test [3]; 23 µM in test [4]; 14.5 µM in test [5]; 13.3 µM in test [7]; 31.6 µM in test [8]. The TGI in test [1] was 20.7 µM; in test [3] it was 31.7 µM; in test [4], 47.5 µM; in test [5] it was 28.9 µM; in test [7], 26.1 µM; in test [8], 79.6 µM.

As for `Oc1ccccc1C=Nc1nc(SCc2ccccc2)nc2[nH]ncc12`, the GI50 in test [1] is 89.4 µM; in test [3], above 100 µM; in test [4], 29.1 µM; in test [5] it was above 100 µM; in test [6] it was 39.1 µM; in test [7] it was 28.2 µM. The GI50 in test [8] is 49.5 µM. The TGI in test [1], in test [3], in test [4], in test [5], in test [6] and in test [7] was above 100 µM in each case. Besides, the TGI in test [8] was above 100 µM.

On to `C=C1C(=O)O[C@H]2[C@H]1CCC(/C=N/c1ncc(Br)cc1N)=C\CC[C@@]1(C)O[C@@H]21`, for which the GI50 in test [1] was 1.72 µM; in test [2] it was 4.82 µM; in test [3], 1.82 µM; in test [4], 1.65 µM; in test [5], 1.25 µM; in test [7], 2.86 µM. Further, in test [8], the GI50 is 10.1 µM. Also, the TGI was 3.52 µM in test [1]; 17.5 µM in test [2]; 6.49 µM in test [3]; 3.59 µM in test [4]; 3.22 µM in test [5]; 11.1 µM in test [7]. This compound also displayed a TGI in test [8] of 24.7 µM.

Take `CC[C@@]1(OC(=O)CN)C(=O)OCc2c1cc1n(c2=O)Cc2cc3c(N)cccc3nc2-1`: the GI50 was below 0.01 µM in test [1]; below 0.016 µM in test [2]; 0.0372 µM in test [3]; 0.392 µM in test [4]; below 0.01 µM in test [6]; below 0.01 µM in test [7]. Besides, in test [8], the GI50 was below 0.01 µM. For the same compound, the TGI in test [1] was 0.203 µM; in test [2] it was 0.156 µM; in test [3] it was 1.63 µM; in test [4], 2.66 µM; in test [6], above 100 µM; in test [7], above 100 µM. Further, in test [8], the TGI is above 100 µM.

`COc1ccc(/C(=N\O)c2cc(C)c(OC)c(C)c2)cc1O`: the GI50 is 0.0407 µM in test [1]; 0.0261 µM in test [3]; 0.0349 µM in test [5]; below 0.01 µM in test [6]; 0.0222 µM in test [7]; 0.0548 µM in test [8]. Also, the TGI in test [1], in test [3], in test [5], in test [6], in test [7] and in test [8] was above 100 µM throughout.

In the case of `O=C(c1ccccc1)C(Br)C(Br)c1cccc([N+](=O)[O-])c1` (stereo not given), the GI50 in test [1] is 1.61 µM; in test [3] it was 2 µM; in test [4] it was 1.86 µM; in test [5] it was 2.48 µM; in test [6], 1.28 µM; in test [7], 2.47 µM. Besides, the GI50 in test [8] is 3.32 µM. Moreover, the TGI in test [1] came to 3.07 µM; in test [3] it was 3.65 µM; in test [4], 3.46 µM; in test [5], 6.33 µM; in test [6], 3.63 µM; in test [7] it was 6.77 µM. This compound registered a TGI in test [8] of 12.9 µM.

For `CC(C)c1c(O)ccc2c1CCC1C(C)(C)CCCC21C` (stereo not given), the TGI in test [1] was determined as 32.2 µM; in test [3], 32.8 µM; in test [4] it was 32 µM; in test [5] it was 28.3 µM; in test [6], 35.3 µM; in test [7], 35.5 µM. In test [8], the TGI worked out at 32.3 µM.
